Experimental data from a melting point compilation (Tetko et al.; mined from patent text by program, amines drawn as free bases though some values may be those of a salt).

O=[N+]([O-])c1ccc(C(c2cccs2)C(Cc2cccs2)N2CCC(Cc3ccccc3)CC2)cc1 (stereo not given) showed a melting point of 124 to 126 °C. With O=C1NC(C(=O)NCCO[N+](=O)[O-])C(c2cccs2)S1 (stereo not given) the melting point was 120 to 122 °C. Cc1cc(N2CCc3ncccc3C2)nc(N2CCC(F)(F)CC2)c1[N+](=O)[O-] gave a melting point of 168 to 169 °C. With CC(C)[C@H](CCC(=O)O)NC(=O)OC(C)(C)C the melting point was 107 to 109 °C. With N#Cc1cc(-c2ccoc2)c2ccc(COc3cc(F)cc(-c4ccc(Cl)cc4Cl)c3)cc2n1 the melting point was 188 to 190 °C. COC(=O)c1ccc2c(CCCNc3ccccn3)nn(C)c2c1 showed a melting point of 101 to 104 °C. COc1ccc(Nc2ccn(-c3ccc(OCC(=O)O)cc3)n2)cc1 gave a melting point of 163 to 165 °C. In the case of O=C(O)c1cn(C2CC2)c2c(F)c(N3CCC(N=Cc4ccc(Cl)cc4)C3)c(F)cc2c1=O (stereo not given), the melting point is reported as 232 to 237 °C. O=C(Cl)Sc1nnnn1-c1ccccc1 gave a melting point of 112 to 114 °C. In the case of O=S(=O)(CC(Cl)C(F)=C(F)F)c1ccccc1 (stereo not given), the melting point is reported as 45 to 47 °C. With CCc1cn(C2CC(OC(C)=O)C(CN(C)C(=O)Cc3ccccc3Br)O2)c(=O)[nH]c1=O (stereo not given) the melting point was 170 °C. COc1cc(C(C)=O)ccc1OCCCN1CCC(C(O)(c2cccc(F)c2)c2cccc(F)c2)CC1 showed a melting point of 149 to 151 °C. For O=S(=O)(c1ccccc1)c1ccc(S)cc1, the melting point was 117 °C. COc1ccc(-c2c(C)c3cc(O)ccc3n2Cc2ccc(OCCN3CCCCC3)cc2)c(OC)c1 showed a melting point of 85 to 92 °C. COc1ccc(N2CCN(c3c(C)c(C)c4c(c3C)C(O)(c3ccc(C)cc3)C(C)(C)O4)CC2)cc1 (stereo not given) showed a melting point of 145 to 147 °C. Work on Cc1ccc2[nH]c(-c3ccc(S(N)(=O)=O)cc3)c(-c3ccccc3)c2c1 yielded a melting point of 242 to 244 °C. CCOC(=O)C1CCN2C(=O)C(=O)c3cc(Br)cc1c32 (stereo not given) showed a melting point of 150 to 151 °C. In the case of OCC1OC(n2cnc3c2N=CNCC3O)C(O)C1O (stereo not given), the melting point is reported as 178 to 183 °C. In the case of Nc1ccc2sc3ccccc3c(=O)c2c1, the melting point is reported as 227 to 229 °C. Compound NC(=O)c1ccc(COc2cccc3c2CN(C2CCC(=O)NC2=O)C3=O)cc1 (stereo not given) has a melting point of 278 to 280 °C. For CC(C)(C)NS(=O)(=O)c1ccccc1-c1ccc(NC(=O)C(C)(C)Nc2cccc(C#N)c2)cc1, the melting point was 190 to 193 °C. Work on Nc1nc(Sc2ccc(F)cc2)cc(-c2ccccc2)n1 yielded a melting point of 218 to 220 °C. Work on CN(C)S(=O)(=O)c1cccc(Nc2ncc3cc4ccccc4n3n2)c1 yielded a melting point of 191 to 193 °C. With CS(=O)(=O)N(CCN1C(=O)c2ccccc2C1=O)c1c(Cl)c(Cl)cc2[nH]c(=O)c(=O)[nH]c12 the melting point was > 300 °C. In the case of O=C1OC2(CC(c3ccccc3C(F)(F)F)=NO2)c2ccccc21 (stereo not given), the melting point is reported as 149 to 150 °C. CNc1nc(C)c(-c2ccncc2)s1 showed a melting point of 155 to 156 °C. For CCOC(=O)C(Cl)=NNc1ccc(Cl)cc1, the melting point was 145 to 148 °C. COC(=O)c1ccc(Cl)c2c1C=CCO2 gave a melting point of 49 to 50 °C. Work on CCCCCCCCCCCCn1nnnc1CCC(=O)OC yielded a melting point of 43 to 45 °C. For COC(=O)C(NS(=O)(=O)c1ccc(-c2ccc(NC(=O)c3oc4cccc(C(O)CO)c4c3C)cc2)cc1)C(C)C (stereo not given), the melting point was 90 to 95 °C. Cc1cccc(C)c1NC(=O)/C=C1\SC(C)C(=O)N1C (stereo not given) gave a melting point of 220 to 222 °C. CC(=O)c1ccc(NS(C)(=O)=O)c(Oc2ccc(F)cc2F)c1 gave a melting point of 117 to 118 °C. In the case of OC1CN2[C@H]3CC[C@@H]2[C@@H]1[C@@H](c1ccc(Cl)c(Cl)c1)C3 (stereo not given in full), the melting point is reported as 156 to 158 °C. With CN(Cc1ccccc1)c1nc(=O)n(C(=O)c2cccs2)cc1F the melting point was 101 to 102 °C. Work on CCNC(=S)NC1CCCc2sccc21 (stereo not given) yielded a melting point of 106 to 112 °C. CS(=O)(=O)Cc1cc(C(=O)C=NCCCCCCN=CC(=O)c2ccc(OCc3ccccc3)c(CS(C)(=O)=O)c2)ccc1OCc1ccccc1 gave a melting point of 162 to 163 °C. Work on CN1Cc2c(-c3noc(CCl)n3)ncn2-c2cccc(Cl)c2C1=O yielded a melting point of 208 to 210 °C. Compound COC(=O)c1ccc2nc(-n3ccnc3)nc(NCCOCCO)c2c1 has a melting point of 233 to 235 °C. Compound Cc1ccccc1CC(=O)N1C[C@@H]2C(=O)CCC(c3ccccc3)(c3ccccc3)[C@@H]2C1 (racemic) has a melting point of 196 °C. With COc1ccc(-c2nc(-c3cccn3CC(=O)OCC(C)C)sc2-c2ccc(OC)cc2)cc1 the melting point was 106 to 108 °C. O=C(O)CCCCCCNS(=O)(=O)c1ccc(Cl)cc1 gave a melting point of 128 to 129 °C. For Cc1oc(-c2ccccc2)nc1COc1ccc(CCc2oc(-c3ccccc3)nc2CC#N)cc1, the melting point was 97 to 98 °C. With O=C(O)C=Cc1cc(N2CCNCC2)ccc1[N+](=O)[O-] the melting point was 229 to 237 °C. Compound Cc1cc(-c2cc(C(F)(F)F)n3ncc(C(=O)Nc4nc(C)c(S(N)(=O)=O)s4)c3n2)ccc1C(F)(F)F has a melting point of 309 °C. In the case of C#CCc1c(C)nc2c(NCc3ccccc3C)cccn12, the melting point is reported as 126 to 128 °C. Cc1ccc(C2CC(N)=NN2c2nc3ccccc3s2)cc1 (stereo not given) showed a melting point of 282 to 285 °C. Work on CC(=CC(=O)OCCCCCCCCC(=O)O)CC1OCC(CC2OC2C(C)C(C)O)C(O)C1O (stereo not given) yielded a melting point of 73 to 75 °C. Work on CN(C)S(=O)(=O)n1cc(-c2ccc(Cl)cc2Cl)nc1C1=NC(=O)C(=O)S1 yielded a melting point of 158 °C. C#CCn1c(=O)c2c(nc(C#Cc3cccc(O)c3)n2C)n(C)c1=O showed a melting point of 271 °C. In the case of CCC(OC(C)=O)c1nc2c(C(F)(F)F)cccc2c(O)c1C(=O)Nc1nccs1 (stereo not given), the melting point is reported as 245 °C.
